This note sets out measurements from article PMC11997999, “Uncovering α-Selectivity for Liver X Receptor Agonists for Lipotoxic Cancer Therapies” (Journal of Medicinal Chemistry, 2025).

For experiment [1], the system named is Akt1^Myr; Myc^OE HCC organoids. The experiment is described as follows: Cell viability analysis in HCC organoids (CellTiter-Glo 3D). The class given is cell-based, murine. Conditions: 5d, with 4 μM sorafenib. The source says: Finally, we analyzed the efficacy of compound 40 in preclinical treatment studies in three-dimensional liver cancer organoid cultures. HCC organoids driven by myristoylated Akt1 and overexpressed Myc (Akt1^Myr; Myc^OE) were isolated from murine liver tumors and subjected to monotherapies of sorafenib, compound 40, or a combination thereof (Figure 7C). The therapeutic outcome was side-by-side compared with combinatorial therapies comprising the established agonists T0901317 (1) and GW3965 (2). […] Isolation of murine HCC organoid cultures was performed from liver tumors derived from C57BL/6 mice using established protocols.[26] The animal experiments were approved by committees of the regional authority of the state of Baden-Wuerttemberg (Regierungspraesidium Tuebingen, authorization number M15/18G) as appropriate. After digestion, the organoids were embedded in 100% Growth Factor Reduced (GFR) MatrigelTM (Corning) and cultured at 37 °C and 5% CO2 in HCC organoid medium supplemented with nicotinamide (10 mM), N-acetylcystein (1.25 mM), human HGF (50 ng/mL), human FGF-10 (100 ng/mL), human R-Spondin (0.5 μg/mL), forskolin (10 μM), A83- 01 (0.5 μM), murine Noggin (50 ng/mL), gastrin I (10 nM), human BMP-7 (25 ng/mL), human Wnt3a (100 ng/mL), B27 supplement (1×) and N2 supplement (1×). The cultures were split by mechanical dissociation every 3 to 4 days. […] Cell viability was determined after 5 days of treatment using the CellTiter-Glo 3D Cell Viability Assay Kit (Promega). Cell viability of Hep3B, AML12, and BNL CL.2 cells was determined after 5 days of treatment in white 96 well plates (Sarstedt) using the CellTiter-Glo 2.0 Cell Viability Assay Kit (Promega). […] The luminescence signal was measured using an […] M PLEX plate reader (Tecan) and the Tecan i-control software (v3.9.1). […]
(In general: In ATP-based viability assays light output follows the ATP content of the culture.)

In experiment [2] the target is T1, LXRα LBD (GST) (Homo sapiens, UniProt Q13133).
T1 construct: 5 nM LXRα LBD (GST); 10 nM LXRβ LBD (GST); purchased ThermoFisher Scientific PV4655
T1 sequence (Q13133 209-447 limits assumed): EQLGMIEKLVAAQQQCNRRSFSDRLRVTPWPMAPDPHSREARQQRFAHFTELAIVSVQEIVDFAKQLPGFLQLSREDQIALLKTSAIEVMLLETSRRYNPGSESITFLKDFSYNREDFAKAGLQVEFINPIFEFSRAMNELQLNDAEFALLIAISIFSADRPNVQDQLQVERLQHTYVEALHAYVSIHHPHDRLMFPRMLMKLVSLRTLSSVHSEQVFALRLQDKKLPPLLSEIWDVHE
The experiment is described as follows: Time-resolved LXR FRET assay (LanthaScreen TR-FRET LXRα Coactivator Assay Kit). Conditions: 5 nM LXRα LBD (GST), read after 6 h; R^2 of fit given; read-out: TR-FRET activity (EC50) LXRα. The class given is biochemical. The protocol: (§1) The biochemical TR-FRET assays were performed using the LanthaScreen TR-FRET LXRα Coactivator Assay Kit, goat (ThermoFisher Scientific, PV4655), and the LanthaScreen TR-FRET LXRβ assay kit, goat (ThermoFisher Scientific, PV4658), according to the manufacturer’s instructions using the following concentrations: 5 nM LXRα LBD (GST); 10 nM LXRβ LBD (GST); 500 nM fluorescein-TRAP220/DRIP-2; 200 nM fluorescein-D22; 10 nM Tb anti-GST antibody. The TR-FRET signals were measured after 6 h using a TECAN SPARK multimode microplate reader with the following settings: first excitation wavelength: 360 nm (bandwidth 35 nm), first emission wavelength: 485 nm (bandwidth 20 nm); second excitation wavelength: 360 nm (bandwidth 35 nm), second emission wavelength: 535 nm (bandwidth 25 nm); integration time: 200 μs; lag time: 100 μs; settle time: 0 ms.
Background: TR-FRET usually uses a lanthanide donor and a delayed reading to cut background.

Experiment [3] addresses T2, LXRβ LBD (GST) (Homo sapiens, UniProt P55055).
T2 construct: 5 nM LXRα LBD (GST); 10 nM LXRβ LBD (GST); purchased ThermoFisher Scientific PV4658
T2 sequence (P55055 222-460 limits assumed): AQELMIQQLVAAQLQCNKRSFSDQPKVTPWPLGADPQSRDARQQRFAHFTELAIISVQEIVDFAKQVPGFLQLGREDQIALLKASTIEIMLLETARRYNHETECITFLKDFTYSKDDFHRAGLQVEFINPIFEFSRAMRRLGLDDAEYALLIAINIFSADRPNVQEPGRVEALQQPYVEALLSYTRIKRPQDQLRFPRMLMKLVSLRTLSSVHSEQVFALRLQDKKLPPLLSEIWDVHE
The experiment is described as follows: Time-resolved LXR FRET assay (LanthaScreen TR-FRET LXRβ assay kit). The class given is biochemical. As to conditions: 10 nM LXRβ LBD (GST), read after 6 h; R^2 of fit given; read-out: TR-FRET activity (EC50) LXRβ. The protocol: as §1

The target of experiment [4] is T3, LXRα (Homo sapiens, UniProt Q13133).
T3 construct: To measure the activity of the remaining isoform under treatment; endogenous in cells; host or cells: Hep3B (NR1H2 knockout, LXRE-GFP reporter)
T3 sequence (Q13133 1-447): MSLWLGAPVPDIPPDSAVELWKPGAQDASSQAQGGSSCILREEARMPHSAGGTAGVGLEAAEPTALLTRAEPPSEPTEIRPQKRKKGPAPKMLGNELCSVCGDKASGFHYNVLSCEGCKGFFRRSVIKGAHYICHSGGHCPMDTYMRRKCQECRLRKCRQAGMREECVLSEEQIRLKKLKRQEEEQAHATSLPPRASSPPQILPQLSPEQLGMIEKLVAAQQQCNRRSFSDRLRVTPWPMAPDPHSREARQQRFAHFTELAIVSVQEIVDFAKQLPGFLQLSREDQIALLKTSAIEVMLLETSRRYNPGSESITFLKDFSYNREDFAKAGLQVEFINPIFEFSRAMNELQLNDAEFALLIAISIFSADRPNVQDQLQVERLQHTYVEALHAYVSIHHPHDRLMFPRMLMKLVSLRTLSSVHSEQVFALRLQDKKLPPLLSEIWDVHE
The experiment is described as follows: LXRα-specific LXRE-GFP reporter assay in Hep3B cells (NR1H2 knockout). As to conditions: 48h of treatment, GFP by FACS. The class given is cell-based. On the technique in general: Reporter assays use an easily measured gene product as a stand-in for the process of interest.

The target in experiment [5] is T4, LXRβ (Homo sapiens, UniProt P55055).
T4 construct: To measure the activity of the remaining isoform under treatment; endogenous in cells; host or cells: Hep3B (NR1H3 knockout, LXRE-GFP reporter)
T4 sequence (P55055 1-460): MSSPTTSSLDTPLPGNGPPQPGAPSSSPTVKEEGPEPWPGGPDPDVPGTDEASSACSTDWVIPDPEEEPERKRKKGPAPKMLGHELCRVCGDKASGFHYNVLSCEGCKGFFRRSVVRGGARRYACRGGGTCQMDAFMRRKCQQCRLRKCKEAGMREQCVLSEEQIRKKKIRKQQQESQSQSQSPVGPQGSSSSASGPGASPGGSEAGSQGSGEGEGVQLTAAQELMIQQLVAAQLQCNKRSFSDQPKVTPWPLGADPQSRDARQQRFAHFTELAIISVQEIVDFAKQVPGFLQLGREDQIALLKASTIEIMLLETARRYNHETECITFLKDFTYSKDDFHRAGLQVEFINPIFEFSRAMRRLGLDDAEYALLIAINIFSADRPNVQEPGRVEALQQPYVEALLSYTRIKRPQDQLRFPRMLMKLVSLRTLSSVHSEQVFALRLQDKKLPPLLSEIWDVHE
The experiment is described as follows: LXRβ-specific LXRE-GFP reporter assay in Hep3B cells (NR1H3 knockout). Format: cell-based. As to conditions: 48h of treatment, GFP by FACS.

With `O=S(=O)(c1ccccc1)N(CC(F)(F)F)c1ccc(C(O)(C(F)(F)F)C(F)(F)F)cc1` [T0901317 (1)], the “therapeutic efficacy (cell viability) in combination with sorafenib” value in experiment [1] is reported as “dose-dependent response”.

Turning to `O=C(O)Cc1cccc(OCCCN(Cc2cccc(C(F)(F)F)c2Cl)CC(c2ccccc2)c2ccccc2)c1` [GW3965 (2), reference compound], the EC50 (usually the concentration giving half of the maximal effect) stood at 87 nM in experiment [2], 24 nM in experiment [3], 320 nM in experiment [4] and 40 nM in experiment [5]. Also, the “therapeutic efficacy (cell viability) in combination with sorafenib” value in experiment [1] is “dose-dependent response”.
